# Assay results published in the SangsterLogP compilation.
compound,measurement,value
COc1cccc(C(=O)NC2C[C@H]3CC[C@@H](C2)N3Cc2ccccc2)c1OC (stereo partly specified),logP,3.07
O=C(NCCN1CCC(n2c(=O)[nH]c3cc(Cl)ccc32)CC1)c1ccc(F)cc1,logP,4.02
COc1cc(C(=O)NCc2ccc(OCCN(C)C)cc2)cc(OC)c1OC,logP,2.04
COc1ccc(S(N)(=O)=O)cc1C(=O)NCC1CCCN1C (stereo unspecified),logP,1.01
NC(=O)C1(N2CCCCC2)CCN(CCCC(=O)c2ccc(F)cc2)CC1,logP,2.68
CCN1CCCC1CNC(=O)c1cc(S(=O)(=O)CC)c(N)cc1OC (stereo unspecified),logP,2.42
COc1ccc(S(N)(=O)=O)cc1C(=O)NCC1CCCN1Cc1ccc(F)cc1 (stereo unspecified),logP,2.08
OCCN1CCN(CCCN2c3ccccc3Sc3ccc(C(F)(F)F)cc32)CC1,logP,4.55
O=c1[nH]c2ccccc2n1C1CCN(CCCC(c2ccc(F)cc2)c2ccc(F)cc2)CC1,logP,6.06
CCN1CCCC1CNC(=O)c1cc(S(=O)(=O)CC)ccc1OC (stereo unspecified),logP,2.05
C=CCN1CCCC1CNC(=O)c1cc2[nH]nnc2cc1OC (stereo unspecified),logP,2.22
